Entries after “also recorded” stand apart in the source; their conditions may differ. Where no end group is shown, it is not given here.
Assays:
[1] = tested on: CREB phosphorylation in isolated nuclei; assay: CREB phosphorylation in isolated HeLa nuclei (P2), Western analysis; type: biochemical; conditions: for relative intensity of phospho-CREB band normalized to basal: basal 1 U, 1 mM 8-Br cAMP, 40 mM bicarbonate alone or plus 10 μM H-89 or 1 mM 8-Br-RpcAMPs
Procedure: The resuspended pellet and 60% OptiPrep iodixanol were mixed (30% OptiPrep final) and centrifuged at 10,000 g for 20 min. The supernatant was removed and the nuclei-enriched pellet (P2) was resuspended in TM-2 buffer without detergent.
Reactions were stopped by the addition of 20 μl of SDS sample buffer (CREB phosphorylation) or by being placed into a 100° C. heat block for 3 min (adenylyl cyclase).
For whole cell and isolated nuclei CREB phosphorylation assays, equal cell or nuclear equivalents were separated under reducing conditions using a 10% SDS-PAGE, transferred to a PVDF membrane, and probed for CREB (rabbit polyclonal antiserum; Chemicon, Temecula, Calif.) and phosphorylated CREB (rabbit polyclonal antiserum; Upstate Biotechnology, Temecula, Calif.). HRP-conjugated secondary antibodies were used, and bands were visualized using ECL. Image analysis software (model Fluorchem 8800; Alpha Innotech, San Leandro, Calif.) was used to quantitate Western results. Intensities of phospho-CREB bands were normalized to total CREB.

[2] = tested on: CREB phosphorylation in isolated nuclei; assay: phospho-CREB immunocytochemistry of isolated nuclei; type: biochemical; conditions: 10 min; 40 mM sodium bicarbonate, 1 mM 8-Br cAMP, 10 μM forskolin
Procedure: Cell Signaling Technologies) overnight at 4° C. Staining was visualized by incubation with goat anti-rabbit Alexa Fluor 488 (Molecular Probes) for 1 h at room temperature, treated with DAPI for 5 min, and washed and mounted with gelvatol/DABCO (Sigma-Aldrich). Fluorescent images were recorded by a digital camera (Hamamatsu, Bridgewater, N.J.) connected to an inverted epifluorescent microscope (Nikon, Melville, N.Y.). Images were taken at the same exposure time and gain, and all photographic manipulations were performed equally. Phospho-CREB-positive nuclei were quantified in multiple fields from each stained slide by a blinded experimenter. […] Nuclei were also treated with DAPI to differentiate intact nuclei from membrane ghosts. DAPI-positive nuclei were scored for phosho-CREB immunofluorescence. Nuclei with detectable staining (FIG. 6A, NaHCO3) were considered positive for CREB phosphorylation, whereas nuclei with no detectable staining (FIG. 6A, Basal) were counted as negative. Multiple microscopic fields were photographed for each condition, and data was combined from three to five separate experiments.

[3] = tested on: INS-1E cells; assay: insulin release in INS-1E cells; type: cell-based; conditions: for insulin release in low glucose: 2.5 mM glucose, 10 nM glucagon; for effect on glucose-stimulated insulin secretion (GSIS): 30 μM KH7, 30 μM KH7.15, 50 μM 2-hydroxyestradiol, 50 μM 2′5′ddAdo
Procedure: (§1) Briefly, cells (passage 140-150) were plated at 2.5×10^5 cells/well in a 24 well plate and permitted to recover for two days. Cells were glucose starved by incubation for 1 hour in the presence of 2.5 mM glucose KRB medium supplemented with 2 mM sodium bicarbonate, 10 mM Hepes, and 0.1% BSA. After washing, cells were incubated in KRB with either 2.5 mM or 16 mM glucose in the presence of either vehicle control (DMSO or MeOH) or indicated drug. After the indicated time, removed media was cleared of cell debris and secreted insulin was measured by Insulin ELISA kit (Linco Research, St. Charles, Mo., or ALPCO, Windham, N.H.). If cAMP was to be concomitantly measured, cells were pre-treated with IBMX for the final 10 minutes of the glucose starvation and IBMX was included in all subsequent incubations. For the washout experiment, subsequent to initial insulin determination, cells treated with KH7 were placed in fresh KRB (2.5 mM glucose) for an additional hour and insulin release was measured as above in the absence of any added drug. For transferrin recycling, loading of cells with I^125 transferrin was performed during hour incubation in 2.5 mM glucose KRB.

[4] = tested on: cAMP in INS-1E cells; assay: intracellular cAMP in INS-1E cells; type: cell-based; conditions: for cAMP generation in low glucose: 2.5 mM glucose, 15 minutes, 10 nM glucagon; for effect on cAMP induced by high glucose: 16 mM glucose, 30 μM KH7, 30 μM KH7.15, 50 μM 2-hydroxyestradiol, 50 μM 2′5′ddAdo
Procedure: as §1

[5] = tested on: tmACs; assay: adenylyl cyclase activity in forskolin stimulated INS-1E cell lysate; conditions: forskolin (10 μM) stimulated INS-1E
Procedure: (§2) In vitro adenylyl cyclase assays were performed on purified recombinant human sACt protein as previously described in Litvin et al., “Kinetic Properties of “Soluble” Adenylyl Cyclase.

[6] = target: T1, purified recombinant human sACt protein (Homo sapiens, UniProt Q96PN6); assay: in vitro adenylyl cyclase assay on purified recombinant human sACt protein
T1 sequence (Q96PN6 1-469 limits assumed): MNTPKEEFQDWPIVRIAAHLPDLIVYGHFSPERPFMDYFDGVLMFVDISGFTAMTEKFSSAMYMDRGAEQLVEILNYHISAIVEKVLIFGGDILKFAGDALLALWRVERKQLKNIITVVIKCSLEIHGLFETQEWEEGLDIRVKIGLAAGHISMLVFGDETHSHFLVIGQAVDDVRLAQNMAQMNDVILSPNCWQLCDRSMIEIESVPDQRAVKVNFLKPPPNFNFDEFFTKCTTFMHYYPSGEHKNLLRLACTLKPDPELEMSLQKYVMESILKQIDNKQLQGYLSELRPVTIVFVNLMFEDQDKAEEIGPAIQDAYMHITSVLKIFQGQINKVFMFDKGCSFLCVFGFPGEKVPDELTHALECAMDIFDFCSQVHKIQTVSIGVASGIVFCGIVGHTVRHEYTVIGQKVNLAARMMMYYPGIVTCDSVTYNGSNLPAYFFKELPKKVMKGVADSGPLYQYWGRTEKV
Procedure: as §2

[7] = tested on: INS-1E cells; assay: transferrin recycling in INS-1E cells; type: cell-based; conditions: 30 minutes, KH7 30 μM
Procedure: as §1

[8] = tested on: primary mouse islets; assay: insulin release from isolated mouse islets; type: cell-based; conditions: 16.7 mM glucose, 30 minutes, 30 μM KH7
Procedure: After several washes with Hank's Balanced Salt Solution, islets were hand-picked and 15-20 islets were distributed into each well of a 12 well plate to adhere overnight in RPMI-1640 media supplemented with 10 mM HEPES, 5.6 mM glucose, 10% FBS, 2 mM L-glutamine, 1 mM sodium pyruvate, and antibiotics.
Insulin release from isolated islets was performed in 12 well plates. Islets were preincubated in KRB (2.8 mM glucose) for 1 hour followed by incubation for 30 minutes in 2.8 mM glucose KRB in the presence of drug. The same wells were then incubated for an additional 30 minutes in 16.7 mM glucose KRB in the presence of the same drugs. Media was removed, cleared of cells, and insulin was measured.

[9] = target: T2, purified sperm isoform of sAC protein (pure sAC) (Homo sapiens, UniProt Q96PN6); assay: in vitro cyclase activity of purified sAC protein (Table 1); type: biochemical
T2 construct: generated against human 48-kD isoform of sAC (sACt) antigen; made in house
T2 sequence (Q96PN6 1-469 limits assumed): T1 sequence (Q96PN6 1-469 limits assumed)

[10] = target: T3, purified solubilized version of Type VII tmAC (sol.AC7) (Homo sapiens, UniProt P51828); assay: in vitro cyclase activity of purified solubilized Type VII tmAC; type: biochemical; conditions: read-out: in vitro IC50 pure sol.AC7
T3 construct: a mixture of purified catalytic domains, C1 and C2, from Type VII tmAC; made in house

[11] = target: T4, sperm sAC (sAC in extracts) (UniProt Q96PN6); assay: in vitro cyclase activity in whole cell extracts from cells overexpressing sperm sAC cDNA; type: biochemical; conditions: unit inferred
T4 construct: whole cell extracts from cells overexpressing sperm sAC cDNA (sAC in extracts)

[12] = target: T5, Type II tmAC (tmAC in extracts) (Homo sapiens, UniProt Q08462); assay: in vitro cyclase activity in extracts of cells overexpressing Type II tmAC; type: biochemical; conditions: unit inferred
T5 construct: expressed in transfected cells

[13] = target: T6, sAC (Homo sapiens, UniProt Q96PN6); assay: cAMP forming activity inside cells stably overexpressing sAC; type: cell-based; conditions: read-out: in vivo IC50 sAC (basal)
T6 construct: expressed in transfected cells

[14] = tested on: tmACs; assay: cAMP forming activity inside cells stimulated with forskolin; type: cell-based; conditions: read-out: in vivo IC50 tmAC (FSK)
[15] = tested on: Plasmodium falciparum; assay: Plasmodium falciparum viability, luciferase assay; type: cell-based
Procedure: . Plasmodium cultures were incubated in the indicated concentrations of KH7 or KH7.15 for 24 hours and viability assessed by luciferase assay (FIG. 16A). […].
Therefore, the effect of sAC inhibitors on P. falciparum viability was tested. […].

[16] = tested on: PfAC; assay: adenylyl cyclase activity in whole cell extract of isolated parasites; type: biochemical, Plasmodium falciparum

T5 sequence (Q08462 whole entry): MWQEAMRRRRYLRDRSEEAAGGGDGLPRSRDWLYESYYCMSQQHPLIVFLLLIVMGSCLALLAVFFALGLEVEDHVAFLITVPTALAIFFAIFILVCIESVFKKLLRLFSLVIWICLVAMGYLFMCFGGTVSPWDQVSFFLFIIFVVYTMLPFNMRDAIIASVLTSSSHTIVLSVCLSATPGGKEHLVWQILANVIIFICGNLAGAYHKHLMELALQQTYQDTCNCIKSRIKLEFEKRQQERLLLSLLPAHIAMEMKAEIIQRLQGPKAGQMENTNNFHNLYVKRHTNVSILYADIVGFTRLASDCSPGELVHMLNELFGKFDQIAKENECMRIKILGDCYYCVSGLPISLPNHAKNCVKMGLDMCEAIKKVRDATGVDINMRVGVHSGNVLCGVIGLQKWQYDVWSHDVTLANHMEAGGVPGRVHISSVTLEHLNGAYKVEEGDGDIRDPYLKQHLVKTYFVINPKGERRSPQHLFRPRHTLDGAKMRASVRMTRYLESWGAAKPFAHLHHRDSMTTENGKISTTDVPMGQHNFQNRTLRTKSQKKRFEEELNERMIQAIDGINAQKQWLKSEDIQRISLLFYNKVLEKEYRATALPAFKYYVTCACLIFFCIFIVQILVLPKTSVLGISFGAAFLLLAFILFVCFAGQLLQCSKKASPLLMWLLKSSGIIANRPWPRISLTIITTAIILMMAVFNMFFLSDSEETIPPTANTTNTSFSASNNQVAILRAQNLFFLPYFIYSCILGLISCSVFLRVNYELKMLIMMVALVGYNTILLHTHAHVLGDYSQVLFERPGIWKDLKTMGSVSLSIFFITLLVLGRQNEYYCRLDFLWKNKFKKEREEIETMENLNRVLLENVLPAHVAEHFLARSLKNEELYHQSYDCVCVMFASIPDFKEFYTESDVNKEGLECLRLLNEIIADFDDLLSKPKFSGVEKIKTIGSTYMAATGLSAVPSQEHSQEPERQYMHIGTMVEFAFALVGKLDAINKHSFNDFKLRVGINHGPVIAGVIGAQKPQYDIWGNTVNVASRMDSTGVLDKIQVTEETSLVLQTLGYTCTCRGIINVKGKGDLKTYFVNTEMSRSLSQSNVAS
T3 sequence (P51828 279-406 limits assumed): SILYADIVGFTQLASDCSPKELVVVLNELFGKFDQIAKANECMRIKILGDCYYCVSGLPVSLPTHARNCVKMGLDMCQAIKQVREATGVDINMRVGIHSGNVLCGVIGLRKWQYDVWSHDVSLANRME
T3 sequence (P51828 879-1023 limits assumed): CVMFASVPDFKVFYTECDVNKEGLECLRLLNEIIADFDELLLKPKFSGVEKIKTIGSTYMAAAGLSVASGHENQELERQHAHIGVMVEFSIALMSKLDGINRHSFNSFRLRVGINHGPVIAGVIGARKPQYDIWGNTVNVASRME
T6 sequence (Q96PN6 whole entry, species assumed): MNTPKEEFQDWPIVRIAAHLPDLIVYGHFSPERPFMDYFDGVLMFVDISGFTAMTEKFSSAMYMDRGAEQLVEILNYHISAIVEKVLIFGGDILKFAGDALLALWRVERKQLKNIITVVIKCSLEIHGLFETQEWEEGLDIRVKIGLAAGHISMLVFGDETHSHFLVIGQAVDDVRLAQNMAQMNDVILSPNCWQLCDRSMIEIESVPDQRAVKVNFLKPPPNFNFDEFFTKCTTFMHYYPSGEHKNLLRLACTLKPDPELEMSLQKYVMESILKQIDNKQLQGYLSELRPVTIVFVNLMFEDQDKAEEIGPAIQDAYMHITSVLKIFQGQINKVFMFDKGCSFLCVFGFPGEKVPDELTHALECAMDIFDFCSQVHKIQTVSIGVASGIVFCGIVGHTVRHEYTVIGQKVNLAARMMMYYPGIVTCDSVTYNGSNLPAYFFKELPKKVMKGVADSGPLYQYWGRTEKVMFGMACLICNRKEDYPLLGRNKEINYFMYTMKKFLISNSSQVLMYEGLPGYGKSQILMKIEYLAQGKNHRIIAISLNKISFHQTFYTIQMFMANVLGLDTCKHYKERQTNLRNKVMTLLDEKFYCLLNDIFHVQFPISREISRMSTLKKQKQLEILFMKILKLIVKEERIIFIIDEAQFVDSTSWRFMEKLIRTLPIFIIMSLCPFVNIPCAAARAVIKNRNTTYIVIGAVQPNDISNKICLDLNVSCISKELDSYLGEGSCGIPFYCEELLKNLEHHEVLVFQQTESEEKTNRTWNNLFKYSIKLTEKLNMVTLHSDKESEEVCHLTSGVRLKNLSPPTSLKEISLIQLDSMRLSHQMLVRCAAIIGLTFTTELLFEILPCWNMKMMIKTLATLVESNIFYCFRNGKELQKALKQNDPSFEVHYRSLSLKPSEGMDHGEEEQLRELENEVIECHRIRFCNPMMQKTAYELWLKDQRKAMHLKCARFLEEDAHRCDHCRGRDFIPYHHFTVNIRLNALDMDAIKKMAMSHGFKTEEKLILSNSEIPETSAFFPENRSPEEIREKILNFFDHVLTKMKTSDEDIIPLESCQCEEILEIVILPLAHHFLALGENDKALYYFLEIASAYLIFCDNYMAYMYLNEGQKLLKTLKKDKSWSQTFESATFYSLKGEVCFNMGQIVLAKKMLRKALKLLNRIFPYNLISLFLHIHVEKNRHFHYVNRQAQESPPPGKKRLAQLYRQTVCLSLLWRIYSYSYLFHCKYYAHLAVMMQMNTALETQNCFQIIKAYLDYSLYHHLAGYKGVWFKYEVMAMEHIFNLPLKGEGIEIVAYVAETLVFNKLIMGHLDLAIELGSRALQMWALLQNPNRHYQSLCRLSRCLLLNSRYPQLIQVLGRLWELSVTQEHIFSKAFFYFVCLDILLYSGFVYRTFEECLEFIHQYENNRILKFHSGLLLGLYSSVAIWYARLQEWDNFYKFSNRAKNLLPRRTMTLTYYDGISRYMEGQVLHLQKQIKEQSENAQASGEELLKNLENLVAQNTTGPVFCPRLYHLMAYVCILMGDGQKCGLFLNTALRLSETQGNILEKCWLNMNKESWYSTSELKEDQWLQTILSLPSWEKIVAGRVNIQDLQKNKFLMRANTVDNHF

Compound: Nc1ncnc2c1nc(Br)n2[C@@H]1O[C@@H]2COP(=O)(O)O[C@H]2[C@H]1O [8-Br-cAMP]
- relative intensity of phospho-CREB band normalized to basal [1]: 30 U
- increase in CREB phosphorylation ([1]; isolated nuclei, Western): 30 fold
- percentage of phospho-CREB-positive nuclei relative to basal [2]: at least a twofold rise

Compound: glucagon: hormone stimulating tmACs [reference compound]
- insulin release in low glucose ([3]; 15 minutes): no significant increase in insulin release
- cAMP generation in low glucose [4]: three fold increase in cAMP generation

Compound: C[C@H]1O[C@@H](n2cnc3c(N)ncnc32)C[C@@H]1O [2′5′ddAdo, 2′5′ dideoxyadenosine]
- effect on cAMP induced by high glucose [4]: partially decreased glucose-induced cAMP generation
- effect on tmACs [5]: potent inhibitor of tmACs
- effect on sAC ([6]; bicarbonate/calcium stimulated pure sAC, concentrations up to 300 μM): did not significantly affect sAC; also recorded: inert towards sAC

Compound: C[C@]12CC[C@@H]3c4cc(O)c(O)cc4CC[C@H]3[C@@H]1CC[C@@H]2O [2-hydroxyestradiol, reference compound]
- effect on glucose-stimulated insulin secretion (GSIS) ([3]; 16 mM glucose): completely inhibited GSIS
- effect on cAMP induced by high glucose [4]: blocked the cAMP induced by the presence of high glucose
- effect on transferrin recycling [7]: unaffected
- effect on insulin release induced by high glucose in islets [8]: inhibited insulin release induced by high glucose

Compound: COc1ccc(/C=C2\C(=O)N(c3nc(-c4ccc(Cl)cc4)cs3)N=C2c2ccccc2)cc1OC [KH2]
- IC50 ([9]; μM): 2 µM
- IC50 [10]: > 400 µM
- IC50 [11]: > 100 µM
- IC50 [12]: > 100 µM
- IC50 [13]: > 500 µM
- IC50 [14]: > 500 µM

Compound: O=C(CSc1nc2ccccc2[nH]1)N/N=C/c1cc(Br)ccc1O [KH7.07]
- IC50 ([9]; μM): 30 µM
- IC50 [13]: 30 µM
- IC50 [14]: > 200 µM

Compound: Cc1ccc(C)c(N2C(=O)/C(=C/c3ccc(Cl)cc3)C=C2c2ccccc2)c1 [KH3]
- IC50 ([9]; μM): 8 µM
- IC50 [10]: > 500 µM
- IC50 [11]: > 100 µM
- IC50 [12]: > 100 µM
- IC50 [13]: > 500 µM
- IC50 [14]: > 500 µM

Compound: GLP-1: hormone stimulating tmACs (HAEGTFTSDVSSYLEGQAAKEFIAWLVKGR; ends and bridges not checked; UniProt P01275 98-127, looked up) [reference compound]
- insulin release in low glucose ([3]; 15 minutes): no significant increase in insulin release
- cAMP generation in low glucose [4]: three fold increase in cAMP generation

Compound: Nc1ncnc2c1ncn2[C@@H]1O[C@@H]2CO[P@@](O)(=S)O[C@H]2[C@H]1O [RpcAMPs]
- relative intensity of phospho-CREB band normalized to basal [1]: 8 U
- reduction of CREB phosphorylation induced by bicarbonate ([1]; isolated nuclei, 40 mM bicarbonate): 70%

Compound: O=C(CSc1nc2ccccc2[nH]1)N/N=C/c1c(F)cccc1Cl [KH7.06]
- IC50 ([9]; unit inferred): ~30 µM

Compound: CC(C)Cn1c(=O)n(C)c(=O)c2[nH]cnc21 [IBMX, reference compound]
- restoration of GSIS in the presence of KH7 ([3]; 0.5 mM IBMX, 30 μM KH7): did not restore GSIS in the presence of KH7 inhibition
- enhancement of GSIS ([3]; 0.5 mM IBMX, 16 mM glucose, 15 minutes): at least 2 fold

Compound: Cc1ccccc1N1C(=O)/C(=C/c2ccc(-c3ccc(Cl)c(Cl)c3)o2)C=C1c1ccccc1 [KH4]
- IC50 ([9]; μM): 6 µM
- IC50 [10]: > 27 µM
- IC50 [11]: > 100 µM
- IC50 [12]: > 100 µM
- IC50 [13]: > 500 µM
- IC50 [14]: > 500 µM

Compound: COc1cc(/C=N/NC(=O)CSc2nc3ccccc3[nH]2)ccc1O [KH7.15]
- effect on glucose-stimulated insulin secretion (GSIS) ([3]; 16 mM glucose): did not affect insulin secretion
- effect on cAMP induced by high glucose [4]: not
- dose required to kill parasites [15]: ≥ 100 µM
- lower affinity for killing P. falciparum relative to KH7 [15]: 10 fold
- dose required to inhibit PfAC activity [16]: ≥ 100 µM
- lower affinity for inhibiting PfAC activity relative to KH7 [16]: 10 fold
- effect on tmACs [5]: inert
- effect on cyclase activity of purified sAC ([6]; bicarbonate (40 mM) and calcium (0.5 mM)): inert

Compound: CCCCOc1ccc(C2=N/C(=C\C(Br)=C\c3ccccc3)C(=O)O2)cc1 [KH1]
- IC50 ([9]; μM): 23 µM
- IC50 [10]: > 200 µM
- IC50 [13]: > 500 µM
- IC50 [14]: > 500 µM

Compound: CCn1c(SCC(=O)N/N=C/c2cc(Br)ccc2O)nc2ccccc21 [KH7.13]
- IC50 ([9]; unit inferred): 75 µM

Compound: COc1ccc(Br)cc1/C=N/NC(=O)CSc1nc2ccccc2[nH]1 [KH7.05]
- IC50 ([9]; unit inferred): ~30 µM
- IC50 [13]: 30 µM
- IC50 [14]: > 200 µM

Compound: Cc1ccsc1/C=N/NC(=O)CSc1nc2ccccc2n1Cc1ccccc1 [KH7.10]
- IC50 ([9]; unit inferred): 80 µM

Source: patent US9649295B2, “Chemical inhibitors of soluble adenylyl cyclase (sAC)” (Cornell Research Foundation, Inc., priority 2004, dated 2017)
